Experimental data reported in patent US7462478B2, “Polynucleotide encoding 2-hydroxyisoflavanone dehydratase and application of the same” (Nihon University, priority 2003, dated 2008).
Several values for one entry are separate records, joined by “and”; a condition that tells them apart may be missing. Equal entries are not always repeated.

Columns and labels:
[1] = system: 2-hydroxyisoflavanone dehydratase in cell-free extract of soybean seedling; experiment: 2-hydroxyisoflavanone dehydratase assay, soybean crude extract; type: biochemical, Glycine max; conditions: for Specific activity, Soybean Crude extract: rate of isoflavone production, 30° C., 10 minutes, mean ± SD of three experiments
Description: (§1) All procedures were carried out at 4° C. Licorice cells (10 g) after elicitor treatment (for 24 hours) or 1-week old soybean raised from seeds (10 g) were homogenized in a mortar with 10 ml of a 100-mM potassium phosphate buffer (pH 7.5) containing 10% sucrose and 14 mM of 2-mercaptoethanol and with sea sand (2.5 g). The resulting homogenate was filtered through gauze and then centrifuged at 10,000×g for 10 minutes. Supernatant was mixed with 2.5 g of Dowex 1-X2 (equilibrated with a 100-mM potassium phosphate buffer), followed by standing for 20 minutes. The solution obtained from the filtration was fractionated with ammonium sulfate and a 30-80% saturated fraction was then demineralized through a Sephadex G-25 column and dissolved in a 100-mM potassium phosphate buffer (pH 7.5) containing 10% sucrose and 14-mM 2-mercaptoethanol, followed by being used in the assay (approximately 600 μg/ml of protein).
(§2) An enzyme preparation was added to 2,7,4′-trihydroxyisoflavanone, 2,7-dihydroxy-4′-methoxyisoflavanone, or 2,5,7,4′-tetrahydroxyisoflavanone (5 nmol each) in 2-methoxyethanol so as to be in a total volume of 100 μl, and then the whole was incubated at 30° C. for 10 minutes.
(§3) A concentrated ethyl acetate extract was incubated with recombinant licorice HIDM (1 μg) at 30° C. for 10 minutes. An ethyl acetate extract from the mixture was analyzed by high-performance liquid chromatography (HPLC). The HPLC for both daidzein and formononetin analysis was carried out using a Capcell pak C18 MG column (4.6×150 mm; Shiseido Co., Ltd.) at 40° C. (flow volume=0.8 ml/min) (Non-Patent Document 12) with a linear gradient elution for 40 minutes from 35% to 55% methanol in 3% aqueous acetic acid. 5-Hydroxyisoflavones were analyzed using a Capcell pak C18MG column (4.6×150 mm; Shiseido Co., Ltd.) with a 50% methanol aqueous solution (for genistein) or a 55% methanol aqueous solution (for biochanin A) at 40° C. (flow rate=0.8 ml/min).
(§4) The purified recombinant protein (approximately 10 ng of protein) and cell-free extracts of licorice and soybean (approximately 10 μg of protein) were used to determine their specific activity. The concentration of isoflavone was calculated from the HPL peak area of the standard sample of each of daidzein, formononetin, and genistein.

[2] = target: T1, 2-hydroxyisoflavanone dehydratase in cell-free extract of licorice cells (strain AK-1) (Glycyrrhiza echinata, UniProt Q5NUF4); experiment: 2-hydroxyisoflavanone dehydratase assay, licorice crude extract; type: biochemical; conditions: for Specific activity, Licorice Crude extract: rate of isoflavone production, 30° C., 10 minutes, mean ± SD of three experiments
T1 construct: Licorice cells (10 g) after elicitor treatment (for 24 hours) or 1-week old soybean raised from seeds (10 g) were homogenized; endogenous in cells; host or cells: elicitor-treated licorice cultured cells (strain AK-1); 30-80% ammonium sulfate fraction of the cell-free extract
T1 sequence (Q5NUF4 1-328): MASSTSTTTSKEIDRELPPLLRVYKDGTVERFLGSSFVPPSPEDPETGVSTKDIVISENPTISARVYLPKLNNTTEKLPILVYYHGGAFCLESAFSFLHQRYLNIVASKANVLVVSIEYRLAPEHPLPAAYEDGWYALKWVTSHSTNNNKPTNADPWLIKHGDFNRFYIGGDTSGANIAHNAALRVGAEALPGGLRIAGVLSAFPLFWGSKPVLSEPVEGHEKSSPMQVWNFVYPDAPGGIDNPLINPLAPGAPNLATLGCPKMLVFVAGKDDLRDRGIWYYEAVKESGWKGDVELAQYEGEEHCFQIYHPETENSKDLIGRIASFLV
Description: as §1, §2
as §3, with “(flow volume=0.8 ml/min) (Non-Patent Document 12) with a linear gradient elution for 40 minutes from 35% to 55% methanol in 3% aqueous acetic acid.” left out, “(flow rate=0.8 ml/min).” left out
as §4

[3] = system: Carboxylesterase from pig liver; experiment: 2-hydroxyisoflavanone dehydratase assay, carboxylesterase from pig liver; type: biochemical
Description: as §2
as §3, with “(flow volume=0.8 ml/min) (Non-Patent Document 12) with a linear gradient elution for 40 minutes from 35% to 55% methanol in 3% aqueous acetic acid.” left out, “(flow rate=0.8 ml/min).” left out
The specific carboxylesterase activities of recombinant licorice HIDM and soybean HIDH proteins were calculated from the generation rate of p-nitrophenol measured at 30° C. by an absorbance at 400 nm in 1.5 ml of a 50-mM Tris-HCl buffer containing 150 mM of NaCl and 750 nmol of p-nitrophenyl butyrate (Heymann 1981). […] Thermally-denatured (100° C., 10 minutes) licorice HIDM, soybean HIDH, and pig liver carboxylesterase protein were analyzed as negative controls, respectively.

[4] = system: 2-hydroxyisoflavanone dehydratase of P. lobata; conditions: Hakamatsuka et al., 1998; cited from earlier work
[5] = target: T2, recombinant soybean HIDH (2-hydroxyisoflavanone dehydratase) (Glycine max, UniProt Q5NUF3); experiment: 2-hydroxyisoflavanone dehydratase assay, recombinant soybean HIDH; type: biochemical; conditions: for Specific activity, Soybean Recombinant protein: purified recombinant protein, rate of isoflavone production, mean ± SD of three experiments
T2 construct: the NdeI-BamHI fragment of soybean cDNA (HIDH) was also subcloned into the corresponding sites of the pET28a; made in house; host or cells: E. coli BL21 (DE3), vector pET28a, purified with HisTrap Kit
T2 sequence (Q5NUF3 1-319): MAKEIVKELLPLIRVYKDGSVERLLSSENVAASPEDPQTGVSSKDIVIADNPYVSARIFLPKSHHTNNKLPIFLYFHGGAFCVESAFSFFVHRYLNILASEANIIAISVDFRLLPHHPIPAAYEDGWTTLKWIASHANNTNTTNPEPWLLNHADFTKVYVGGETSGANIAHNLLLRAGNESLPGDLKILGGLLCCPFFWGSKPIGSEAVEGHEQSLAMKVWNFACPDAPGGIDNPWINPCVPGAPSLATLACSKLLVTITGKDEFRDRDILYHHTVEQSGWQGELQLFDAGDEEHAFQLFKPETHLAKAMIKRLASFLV
Description: as §2, §3, §4
(§5) The NdeI-BamHI fragment of the PCR product from licorice HIDM was cloned into the corresponding sites of pET28a (Novagen Ltd.). In addition, the NdeI-BamHI fragment of soybean cDNA (HIDH) was also subcloned into the corresponding sites of the pET28a. The expression and purification of recombinant 2-hydroxyisoflavanone dehydratases were carried out by the following procedures (Non-Patent Document 12). The E. coli BL21 (DE3) cells transformed with the vector containing HIDM or HIDH were incubated up to OD600=0.4 in a LB/ampicillin medium supplemented with 20 ml of 50 μg/ml kanamycin or ampicillin at 30° C. IPTG was added to the culture so as to be a final concentration of 1.0 mM and the whole was incubated at 30° C. for six hours. The licorice HIDM and soybean HIDH were purified from the crude extracts of HIDM and HIDH-expression E. coli using HisTrap Kit (Amersham Biosciences Corporation), respectively.

[6] = target: T3, recombinant licorice HIDM (2-hydroxyisoflavanone dehydratase) (Glycyrrhiza echinata, UniProt Q5NUF4); experiment: 2-hydroxyisoflavanone dehydratase assay, recombinant licorice HIDM; type: biochemical; conditions: for Specific activity, Licorice Recombinant protein: purified recombinant protein, rate of isoflavone production, mean ± SD of three experiments
T3 construct: The NdeI-BamHI fragment of the PCR product from licorice HIDM was cloned into the corresponding sites of pET28a; made in house; host or cells: E. coli BL21 (DE3), vector pET28a, purified with HisTrap Kit
T3 sequence (Q5NUF4 1-328): T1 sequence (Q5NUF4 1-328)
Description: as §2
The assay of 2,5,7-trihydroxy-4′-methoxyisoflavanone dehyderatase (biochanin A synthetase) was carried out as follows. 2,5,7,4′-tetrahydroxyisoflavanone (10 nmol) dissolved in 2-methoxyethanol was incubated together with licorice HI4′OMT (1 μg) and 1 μmol of S-adenosyl-L-methionine (SAM) at 30° C. for 15 minutes.
as §3, §4, §5

[7] = system: Carboxylesterase from pig liver; experiment: Carboxylesterase activity of pig liver carboxylesterase (positive control); type: biochemical; conditions: rate of p-nitrophenol production, 30° C., absorbance at 400 nm
Description: (§6) The specific carboxylesterase activities of recombinant licorice HIDM and soybean HIDH proteins were calculated from the generation rate of p-nitrophenol measured at 30° C. by an absorbance at 400 nm in 1.5 ml of a 50-mM Tris-HCl buffer containing 150 mM of NaCl and 750 nmol of p-nitrophenyl butyrate (Heymann 1981). Commercially-available pig liver carboxylesterase (Sigma Corporation) was used as a positive control. Thermally-denatured (100° C., 10 minutes) licorice HIDM, soybean HIDH, and pig liver carboxylesterase protein were analyzed as negative controls, respectively.

recombinant soybean HIDH = target: T4, recombinant soybean HIDH (Glycine max, UniProt Q5NUF3); experiment: Carboxylesterase activity of recombinant soybean HIDH; type: biochemical
T4 construct: the NdeI-BamHI fragment of soybean cDNA (HIDH) was also subcloned into the corresponding sites of the pET28a; made in house; host or cells: E. coli BL21 (DE3), vector pET28a, purified with HisTrap Kit
T4 sequence (Q5NUF3 1-319): T2 sequence (Q5NUF3 1-319)
Description: as §6

[8] = target: T5, recombinant licorice HIDM (Glycyrrhiza echinata, UniProt Q5NUF4); experiment: Carboxylesterase activity of recombinant licorice HIDM; type: biochemical
T5 construct: The NdeI-BamHI fragment of the PCR product from licorice HIDM was cloned into the corresponding sites of pET28a; made in house; host or cells: E. coli BL21 (DE3), vector pET28a, purified with HisTrap Kit
T5 sequence (Q5NUF4 1-328): T1 sequence (Q5NUF4 1-328)
Description: as §6

[9] = rate of p-nitrophenol production, 30° C., absorbance at 400 nm

In the case of `O=C1c2ccc(O)cc2OC(O)C1c1ccc(O)cc1` (stereo not drawn) [2,7,4′-trihydroxyisoflavanone], the “Specific activity, Soybean Crude extract” value [1] is reported as 197.3 ± 15 pkatal/mg, the “Activity (daidzein production), times as small as the production of formononetin” value ([2]; licorice extract, versus 2,7-dihydroxy-4′-methoxyisoflavanone) is reported as “approximately 160 times” and the “Specific activity, Licorice Crude extract” value [2] is reported as 0.8 ± 0.03 pkatal/mg. For the same compound, the “Dehydration by carboxylesterase from pig liver” value [3] was “did not dehydrate”, the “Specific activity, Carboxylesterase from pig liver (dehydration)” value ([3]; rate of isoflavone production) was 0 nkatal/mg and the “Specific activity of dehydratase of P. lobata” value [4] was 56.8 mkatal/kg protein. For the same compound, the “Specific activity, Soybean Recombinant protein” value [5] was 43.6 nkatal/mg and 43.6 ± 4 nkatal/mg and the “Specific activity, Licorice Recombinant protein” value [6] was 0.70 ± 0.08 nkatal/mg.
With `COc1ccc(C2C(=O)c3ccc(O)cc3OC2O)cc1` (stereo not drawn) [2,7-dihydroxy-4′-methoxyisoflavanone] the “Specific activity, Soybean Crude extract” value [1] was 97.4 ± 10 pkatal/mg, the “Specific activity, Licorice Crude extract” value [2] was 123.0 ± 8 pkatal/mg and the “Specific activity, Soybean Recombinant protein” value [5] was 0.90 ± 0.1 nkatal/mg. For the same compound, the “Specific activity, Licorice Recombinant protein” value [6] was 52.1 ± 1.5 nkatal/mg and the “Specific activity of licorice HIDM, times as high as to 2,7,4′-trihydroxyisoflavanone” value ([6]; recombinant licorice HIDM) was 74 times.
In the case of `COc1ccc(C2C(=O)c3c(O)cc(O)cc3OC2O)cc1` (stereo not drawn) [2,5,7-trihydroxy-4′-methoxyisoflavanone], the “Product detected by HPLC after incubation with licorice HIDM” value ([6]; substrate made with HI4′OMT and SAM, HIDM 1 μg, 30° C., 10 minutes) is reported as “biochanin A was detected”.
With `O=C1c2c(O)cc(O)cc2OC(O)C1c1ccc(O)cc1` (stereo not drawn) [2,5,7,4′-tetrahydroxyisoflavanone] the “Specific activity, Soybean Crude extract” value [1] was 19.6 ± 3 pkatal/mg, the “Production of genistein, level with respect to the production of daidzein” value ([1]; soybean extract) was “approximately 1/10” and the “Specific activity, Soybean Recombinant protein” value [5] was 3.55 ± 0.6 nkatal/mg. The “Product formation by soybean HIDH (HPLC)” value ([5]; recombinant soybean HIDH) was “catalyzed the production of genisein”.
In the case of `CCCC(=O)Oc1ccc([N+](=O)[O-])cc1` [p-nitrophenyl butyrate], the “Specific carboxylesterase activity, Carboxylesterase from pig liver” value [7] is reported as 425 ± 7 (f) nkatal/mg, the “Carboxylesterase activity of recombinant soybean dehydratase” value (recombinant soybean HIDH) is reported as “weak activity” and the “Carboxylesterase activity of soybean HIDH as fraction of the pig liver enzyme” value (recombinant soybean HIDH) is reported as “approximately 1/50”. The “Specific carboxylesterase activity, Soybean Recombinant protein” value (recombinant soybean HIDH; [9]) was 7.20 ± 0.4 (f) nkatal/mg, the “Carboxylesterase activity of recombinant licorice dehydratase” value [8] was “weak activity” and the “Specific carboxylesterase activity, Licorice Recombinant protein” value [8, 9] was 0.32 ± 0.07 (f) nkatal/mg.
